Assay results from patent publication US10150764B2, “Substituted benzene compounds” (Epizyme, Inc., priority 2013, dated 2018).
Structures can show the parent of a compound that is named as a salt.

Tests used:
WSU-DLCL2 cells = assay: Cell proliferation analysis, WSU-DLCL2 (Cell Titer Glo); assay type: cell-based; details: Homo sapiens, WSUDLCL2, 144 h, 6 days incubation, ATP readout
From the text: Cell Proliferation Analysis
WSU-DLCL2 suspension cells were purchased from DSMZ (German Collection of Microorganisms and Cell Cultures, Braunschweig, Germany), RPMI/Glutamax Medium, Penicillin-Streptomycin, Heat Inactivated Fetal Bovine Serum were purchased from Life Technologies, Grand Island, N.Y., USA, V-bottom polypropylene 384-well plates were purchased from Greiner Bio-One, Monroe, N.C., USA. Cell culture 384-well white opaque plates were purchased from Perkin Elmer, Waltham, Mass., USA. Cell-Titer Glo® was purchased from Promega Corporation, Madison, Wis., USA. SpectraMax M5 plate reader was purchased from Molecular Devices LLC, Sunnyvale, Calif., USA.
WSU-DLCL2 suspension cells were maintained in growth medium (RPMI 1640 supplemented with 10% v/v heat inactivated fetal bovine serum and cultured at 37° C. under 5% CO2. Under assay conditions, cells were incubated in Assay Medium (RPMI 1640 supplemented with 20% v/v heat inactivated fetal bovine serum and 100 units/mL penicillin-streptomycin) at 37° C. under 5% CO2.
For the assessment of the effect of compounds on the proliferation of the WSU-DLCL2 cell line, exponentially growing cells were plated in 384-well white opaque plates at a density of 1250 cell/ml in a final volume of 50 μl of assay medium. A compound source plate was prepared by performing triplicate nine-point 3-fold serial dilutions in DMSO, beginning at 10 mM (final top concentration of compound in the assay was 20 μM and the DMSO was 0.2%). A 100 nL aliquot from the compound stock plate was added to its respective well in the cell plate. […] After addition of compounds, assay plates were incubated for 6 days at 37° C., 5% CO2, relative humidity >90% for 6 days. Cell viability was measured by quantization of ATP present in the cell cultures, adding 35 μl of Cell Titer Glo® reagent to the cell plates. Luminescence was read in the SpectraMax M5. The concentration inhibiting cell viability by 50% was determined using a 4-parametric fit of the normalized dose response curves.

[1] = target: EZH2 Y641F mutant (PRC2 enzyme) (Homo sapiens (Human), UniProt Q15910, Y641F); assay: PRC2 enzyme assay on peptide substrate, EZH2 Y641F mutant (H3K27me2 peptide, 3H-SAM Flashplate); assay type: biochemical; details: Y641F mutant PRC2 4 nM
Sequence of EZH2 Y641F mutant (PRC2 enzyme) (Q15910 whole entry Y641F): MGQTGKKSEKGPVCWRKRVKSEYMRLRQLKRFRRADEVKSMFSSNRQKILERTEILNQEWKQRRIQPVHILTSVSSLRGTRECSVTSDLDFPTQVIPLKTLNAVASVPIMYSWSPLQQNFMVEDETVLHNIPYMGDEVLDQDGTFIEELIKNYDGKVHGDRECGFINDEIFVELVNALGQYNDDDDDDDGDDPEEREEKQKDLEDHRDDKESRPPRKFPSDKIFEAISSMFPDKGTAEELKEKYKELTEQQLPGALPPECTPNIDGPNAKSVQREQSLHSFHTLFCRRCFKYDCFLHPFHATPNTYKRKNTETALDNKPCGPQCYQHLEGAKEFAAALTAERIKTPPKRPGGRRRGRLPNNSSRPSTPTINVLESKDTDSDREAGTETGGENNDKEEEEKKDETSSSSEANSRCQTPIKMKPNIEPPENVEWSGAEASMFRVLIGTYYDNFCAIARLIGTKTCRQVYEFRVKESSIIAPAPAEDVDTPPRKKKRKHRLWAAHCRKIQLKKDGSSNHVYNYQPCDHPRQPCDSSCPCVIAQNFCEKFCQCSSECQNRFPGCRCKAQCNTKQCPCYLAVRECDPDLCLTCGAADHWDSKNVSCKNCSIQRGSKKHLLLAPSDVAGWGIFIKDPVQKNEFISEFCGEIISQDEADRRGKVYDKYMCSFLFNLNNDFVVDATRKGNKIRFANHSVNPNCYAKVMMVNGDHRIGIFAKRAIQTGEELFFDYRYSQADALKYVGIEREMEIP
Sequence of EZH2 Y641F mutant (PRC2 enzyme) (O75530 whole entry partner): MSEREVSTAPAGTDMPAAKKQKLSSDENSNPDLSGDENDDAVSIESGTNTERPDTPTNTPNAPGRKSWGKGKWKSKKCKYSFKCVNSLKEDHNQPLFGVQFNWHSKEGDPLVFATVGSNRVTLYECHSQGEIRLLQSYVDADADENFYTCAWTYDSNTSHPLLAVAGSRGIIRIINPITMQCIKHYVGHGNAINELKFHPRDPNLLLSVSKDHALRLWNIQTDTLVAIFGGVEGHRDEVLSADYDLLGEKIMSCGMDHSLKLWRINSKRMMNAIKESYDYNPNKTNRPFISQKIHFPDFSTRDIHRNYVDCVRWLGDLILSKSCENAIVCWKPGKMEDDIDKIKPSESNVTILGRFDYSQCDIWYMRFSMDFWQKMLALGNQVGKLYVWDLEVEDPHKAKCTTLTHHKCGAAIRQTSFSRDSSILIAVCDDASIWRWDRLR
Sequence of EZH2 Y641F mutant (PRC2 enzyme) (Q15022 whole entry partner): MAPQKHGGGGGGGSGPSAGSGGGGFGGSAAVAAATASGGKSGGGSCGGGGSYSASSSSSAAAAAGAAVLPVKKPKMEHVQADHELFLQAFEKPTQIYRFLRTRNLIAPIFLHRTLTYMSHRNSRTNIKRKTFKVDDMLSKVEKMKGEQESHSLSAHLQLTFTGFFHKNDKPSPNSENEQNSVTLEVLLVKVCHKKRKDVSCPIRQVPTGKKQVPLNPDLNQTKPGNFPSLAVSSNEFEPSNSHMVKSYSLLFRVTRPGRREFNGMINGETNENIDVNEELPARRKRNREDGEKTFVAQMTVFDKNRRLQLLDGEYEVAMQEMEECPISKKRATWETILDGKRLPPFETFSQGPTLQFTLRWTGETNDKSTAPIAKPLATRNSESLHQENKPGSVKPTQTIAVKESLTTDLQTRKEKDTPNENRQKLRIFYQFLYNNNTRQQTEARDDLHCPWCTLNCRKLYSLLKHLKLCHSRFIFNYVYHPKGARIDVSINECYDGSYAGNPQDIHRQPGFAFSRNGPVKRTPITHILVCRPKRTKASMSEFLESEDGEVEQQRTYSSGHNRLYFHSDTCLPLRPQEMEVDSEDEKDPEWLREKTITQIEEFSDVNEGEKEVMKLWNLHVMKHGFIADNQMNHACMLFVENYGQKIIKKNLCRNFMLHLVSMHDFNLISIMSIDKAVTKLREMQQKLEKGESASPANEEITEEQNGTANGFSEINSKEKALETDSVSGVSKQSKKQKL
Sequence of EZH2 Y641F mutant (PRC2 enzyme) (Q09028 whole entry partner): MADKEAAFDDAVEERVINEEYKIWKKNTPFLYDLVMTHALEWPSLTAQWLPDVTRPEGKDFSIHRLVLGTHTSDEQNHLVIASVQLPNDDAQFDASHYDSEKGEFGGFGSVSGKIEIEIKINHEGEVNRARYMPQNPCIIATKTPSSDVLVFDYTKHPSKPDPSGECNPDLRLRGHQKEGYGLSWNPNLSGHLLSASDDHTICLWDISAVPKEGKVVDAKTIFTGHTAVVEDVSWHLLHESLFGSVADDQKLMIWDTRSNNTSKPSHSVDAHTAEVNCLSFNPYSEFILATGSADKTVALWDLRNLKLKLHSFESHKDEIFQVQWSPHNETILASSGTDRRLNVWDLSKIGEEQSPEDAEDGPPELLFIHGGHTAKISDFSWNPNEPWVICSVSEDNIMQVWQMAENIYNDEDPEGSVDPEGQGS

[2] = system: H3K27me3 in WSU-DLCL2 cells; assay: WSU-DLCL2 methylation assay (H3K27me3 ELISA); assay type: cell-based, human; details: Homo sapiens, WSUDLCL2, 96 hours incubation, H3K27me3 normalised to total H3
From the text: WSU-DLCL2 Methylation Assay
WSU-DLCL2 suspension cells were purchased from DSMZ (German Collection of Microorganisms and Cell Cultures, Braunschweig, Germany). RPMI/Glutamax Medium, Penicillin-Streptomycin, Heat Inactivated Fetal Bovine Serum, and D-PBS were purchased from Life Technologies, Grand Island, N.Y., USA. Extraction Buffer and Neutralization Buffer (5×) were purchased from Active Motif, Carlsbad, Calif., USA. Rabbit anti-Histone H3 antibody was purchased from Abcam, Cambridge, Mass., USA. Rabbit anti-H3K27me3 and HRP-conjugated anti-rabbit-IgG were purchased from Cell Signaling Technology, Danvers, Mass., USA. TMB “Super Sensitive” substrate was sourced from BioFX Laboratories, Owings Mills, Md., USA. IgG-free Bovine Serum Albumin was purchased from Jackson ImmunoResearch, West Grove, Pa., USA. PBS with Tween (10×PBST) was purchased from KPL, Gaithersburg, Md., USA. Sulfuric Acid was purchased from Ricca Chemical, Arlington, Tex., USA. Immulon ELISA plates were purchased from Thermo, Rochester, N.Y., USA. V-bottom cell culture plates were purchased from Corning Inc., Corning, N.Y., USA. V-bottom polypropylene plates were purchased from Greiner Bio-One, Monroe, N.C., USA.
WSU-DLCL2 suspension cells were maintained in growth medium (RPMI 1640 supplemented with 10% v/v heat inactivated fetal bovine serum and 100 units/mL penicillin-streptomycin) and cultured at 37° C. under 5% CO2. Under assay conditions, cells were incubated in Assay Medium (RPMI 1640 supplemented with 20% v/v heat inactivated fetal bovine serum and 100 units/mL penicillin-streptomycin) at 37° C. under 5% CO2 on a plate shaker.
WSU-DLCL2 cells were seeded in assay medium at a concentration of 50,000 cells per mL to a 96-well V-bottom cell culture plate with 200 μL per well. […] Plates were incubated on a titer-plate shaker at 37° C., 5% CO2 for 96 hours. After four days of incubation, plates were spun at 241×g for five minutes and medium was aspirated gently from each well of cell plate without disturbing cell pellet. Pellet was resuspended in: 200 μL DPBS and plates were spun again at 241×g for five minutes. The supernatant was aspirated and cold (4° C.) Extraction buffer (100 μL) was added per well. Plates were incubated at 4° C. on orbital shaker for two hours. Plates were spun at 3427×g×10 minutes. Supernatant (80 μL per well) was transferred to its respective well in 96 well V-bottom polypropylene plate. Neutralization Buffer 5× (20 μL per well) was added to V-bottom polypropylene plate containing supernatant. V-bottom polypropylene plates containing crude histone preparation (CHP) were incubated on orbital shaker×five minutes. Crude Histone Preparations were added (2 μL per well) to each respective well into duplicate 96 well ELISA plates containing 100 μL Coating Buffer (1×PBS+BSA 0.05% w/v). Plates were sealed and incubated overnight at 4° C. The following day, plates were washed three times with 300 μL per well 1×PBST. […] For H3K27me3 detection, 100 μL of HRP conjugated anti-rabbit IgG antibody diluted to 1:4000 in ELISA diluent was added per well. Plates were incubated at room temperature for 90 minutes. […] TMB substrate 100 μL was added per well. Histone H3 plates were incubated for five minutes at room temperature. H3K27me3 plates were incubated for 10 minutes at room temperature. The reaction was stopped with sulfuric acid 1N (100 μL per well). Absorbance for each plate was read at 450 nm.
Each plate included eight control wells DMSO only treatment (Minimum Inhibition) as well as eight control wells for maximum inhibition (Background wells).
The average of the ratio values for each control type was calculated and used to determine the percent inhibition for each test well in the plate. Test compound was serially diluted three-fold in DMSO for a total of ten test concentrations, beginning at 25 μM.

[3] = target: wild-type EZH2 (PRC2 enzyme) (Homo sapiens (Human), UniProt Q15910); assay: PRC2 enzyme assay on peptide substrate, wild-type EZH2 (H3K27me0 peptide, 3H-SAM Flashplate); assay type: biochemical; details: wild-type PRC2 4 nM, read-out: WT EZH2 IC50
Sequence of wild-type EZH2 (PRC2 enzyme) (Q15910 whole entry): as the sequence (Q15910 whole entry Y641F) above, with F641Y counted along it
Sequence of wild-type EZH2 (PRC2 enzyme) (O75530 whole entry partner): as the sequence (O75530 whole entry partner) above
Sequence of wild-type EZH2 (PRC2 enzyme) (Q15022 whole entry partner): as the sequence (Q15022 whole entry partner) above
Sequence of wild-type EZH2 (PRC2 enzyme) (Q09028 whole entry partner): as the sequence (Q09028 whole entry partner) above

SMILES | IC50 (WSU-DLCL2 cells) | IC50 [1] | IC50 [2] | IC50 [3]
CCn1[nH]c(=O)c(CNC(=O)c2cc(Cl)cc(N(CC)[C@H]3CC[C@H](N(C)Cc4cccc(OC)c4)CC3)c2C)c1C [Compound 63, 5-chloro-3-(ethyl ((trans)-4-((3-methoxybenzyl)-(methyl)-amino)-cyclohexyl)amino)-N-((1-ethyl-5-methyl-3-oxo-2,3-dihydro-1H-pyrazol-4-yl)methyl)-2-methylbenzamide] | 1.55 µM | 12 nM | > 50 µM | 46 nM
CCN(c1cc(Cl)cc(C(=O)NCc2c(C)[nH][nH]c2=O)c1C)[C@H]1CC[C@H](N(C)C)CC1 [Compound 32, 5-chloro-3-(ethyl((trans)-4-(dimethylamino)cyclohexyl)amino)-2-methyl-N-((5-methyl-3-oxo-2,3-dihydro-1H-pyrazol-4-yl)methyl]benzamide Formate] | 11.5 µM | 15 nM | 15.4 µM | 68 nM
CCN(c1cc(-c2ccc(OCCOC)cc2)cc(C(=O)NCc2c(C)[nH]n(C)c2=O)c1C)[C@H]1CC[C@H](N(C)C)CC1 [Compound 35, N-((2,5-dimethyl-3-oxo-2,3-dihydro-1H-pyrazol-4-yl)methyl)-5-(((trans)-4-(dimethylamino)cyclohexyl)(ethyl)amino)-4′-(2-methoxyethoxy)-4-methyl-[1,1′-biphenyl]-3-carboxamide] | > 20 µM | 63 nM | 17.9 µM | 267 nM
CCn1[nH]c(C)c(CNC(=O)c2cc(Cl)cc(N(CC)[C@H]3CC[C@H](N(C)C)CC3)c2C)c1=O [Compound 36, 5-chloro-3-(((trans)-4-(dimethylamino)cyclohexyl)(ethyl)amino)-N-((2-ethyl-5-methyl-3-oxo-2,3-dihydro-1H-pyrazol-4-yl)methyl)-2-methylbenzamide] | > 20 µM | 114 nM | 7.97 µM | 829 nM
CCn1[nH]c(=O)c(CNC(=O)c2cc(Cl)cc(N(CC)[C@H]3CC[C@H](N(C)C)CC3)c2C)c1C [Compound 52, 5-chloro-3-(((trans)-4-(dimethylamino)cyclohexyl)(ethyl)amino)-N-((1-ethyl-5-methyl-3-oxo-2,3-dihydro-1H-pyrazol-4-yl)methyl)-2-methylbenzamide] | 7.34 µM | 30 nM | 3.04 µM | 367 nM
CCN(c1cc(Cl)cc(C(=O)NCc2c(C)n(C)[nH]c2=O)c1C)[C@H]1CC[C@H](N(C)Cc2ccc(OC)cc2)CC1 [Compound 56, 5-chloro-N-((1,5-dimethyl-3-oxo-2,3-dihydro-1H-pyrazol-4-yl)methyl)-3-(ethyl((trans)-4-((4-methoxybenzyl)(methyl)amino)cyclohexyl)amino)-2-methylbenzamide] | 10.7 µM | 11 nM | 4.68 µM | 25 nM
CCc1[nH]n(C)c(=O)c1CNC(=O)c1cc(Cl)cc(N(CC)[C@H]2CC[C@H](N(C)C)CC2)c1C [Compound 38, 5-chloro-3-(((trans)-4-(dimethylamino)cyclohexyl)(ethyl)amino)-N-((5-ethyl-2-methyl-3-oxo-2,3-dihydro-1H-pyrazol-4-yl)methyl)-2-methylbenzamide] | > 20 µM | 265 nM | 18.1 µM | 3370 nM
CCN(c1cc(Cl)cc(C(=O)NCc2c(C)n(C)[nH]c2=O)c1C)[C@H]1CC[C@H](N(C)Cc2cccc(OC)c2)CC1 [Compound 57, 5-chloro-N-((1,5-dimethyl-3-oxo-2,3-dihydro-1H-pyrazol-4-yl)methyl)-3-(ethyl((trans)-4-((3-methoxybenzyl)(methyl)amino)cyclohexyl)amino)-2-methylbenzamide] | 6.05 µM | 10 nM | 6.16 µM | 20 nM
CCN(c1cc(Cl)cc(C(=O)NCc2c(C)[nH]n(C)c2=O)c1C)[C@H]1CC[C@H](N(C)C)CC1 [Compound 34, 5-chloro-N-((2,5-dimethyl-3-oxo-2,3-dihydro-1H-pyrazol-4-yl)methyl)-3-(((trans)-4-(dimethylamino)cyclohexyl)(ethyl)amino)-2-methylbenzamide] | 6.92 µM | 110 nM | 18.6 µM | 223 nM
CCN(c1cc(Cl)cc(C(=O)NCc2c(N3CCCC3)n(C)[nH]c2=O)c1C)[C@H]1CC[C@H](N(C)C)CC1 [Compound 81, 5-chloro-3-(((trans)-4-(dimethylamino)cyclohexyl) (ethyl)amino)-2-methyl-N-((1-methyl-3-oxo-5-(pyrrolidin-1-yl)-2,3-dihydro-1H-pyrazol-4-yl)methyl)benzamide] | 1.26 µM | 5 nM | 2.19 µM | 18 nM
